Among the test systems are 786-0; ACHN; CAKI-1; COLO 205; DU-145; EKVX; Hs-578T; KM12; LOX IMVI; Malme-3M; NCI-H226; NCI-H23; OVCAR-5; RPMI-8226; SF-539; SK-MEL-2; SNB-75; UACC-257.
Holding throughout (assay): NCI-60 cell line screen, 48 h

The text below walks through data of ChEMBL document CHEMBL1201862, “PubChem BioAssay data set” (2004).

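These data come from cells grown in 96-well plates and exposed to compound for 48 hours at five concentrations. The concentration for 50% growth inhibition is given as GI50.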 Activity calls are given as the source filed them. Rule as the data show it: active = GI50 up to about 1.1 µM and inactive = higher. A value given as a limit tells only on which side of the number the result lay.

Consider `N#C/C(=C1\N=C(c2ccccc2O)Oc2ccccc21)c1ccc([N+](=O)[O-])cc1`, for which the GI50 is 93.8 µM (inactive) in the test on 786-0; > 100 µM (inactive) with ACHN; > 100 µM (inactive) with CAKI-1; > 100 µM (inactive) with COLO 205; > 100 µM (inactive) in the test on DU-145; > 100 µM (inactive) with EKVX. In addition, the GI50 in the test with Hs-578T is 62.2 µM (inactive); with KM12 it was > 100 µM (inactive); with LOX IMVI, > 100 µM (inactive); with Malme-3M it was > 100 µM (inactive); in the test on NCI-H226 it was > 100 µM (inactive); in the test on NCI-H23, > 100 µM (inactive). The GI50 in the test on OVCAR-5 is > 100 µM (inactive); in the test on RPMI-8226, > 100 µM (inactive); in the test with SF-539 it was 66.5 µM (inactive); with SK-MEL-2, > 100 µM (inactive); in the test with SNB-75 it was 70.6 µM (inactive); in the test with UACC-257, > 100 µM (inactive).
For the molecule `COc1c(C)c(OC)c2c(c1O)[C@@H]1[C@@H]3Cc4c(OC)c(C)c(OC)c(O)c4[C@H](CNC(=O)c4cnc5ccccc5n4)N3[C@@H](C#N)[C@H](C2)N1C`, the GI50 was 0.00412 µM (active) in the test with 786-0; 0.00348 µM (active) in the test on ACHN; 0.00536 µM (active) in the test on CAKI-1; 0.00119 µM (active) in the test on COLO 205; 0.0026 µM (active) with DU-145; 0.00149 µM (active) in the test with EKVX. Further, the GI50 is 0.00134 µM (active) in the test with Hs-578T; 0.00149 µM (active) with KM12; 0.00108 µM (active) with LOX IMVI; 0.0013 µM (active) with Malme-3M; 0.00246 µM (active) in the test with NCI-H226; 0.00277 µM (active) in the test on NCI-H23. The GI50 was 0.00337 µM (active) in the test on OVCAR-5; 0.000634 µM (active) in the test on RPMI-8226; 0.000873 µM (active) in the test with SF-539; 0.00183 µM (active) in the test on SK-MEL-2; 0.00266 µM (active) in the test with SNB-75; 0.00296 µM (active) with UACC-257.
Turning to `CO/N=[N+](\[O-])NC(C)C`, the GI50 in the test with 786-0, in the test on ACHN, with CAKI-1, in the test on COLO 205, with DU-145 and in the test on EKVX was > 100 µM (inactive) in each case. Besides, the GI50 with Hs-578T, in the test with KM12, with LOX IMVI, with Malme-3M, in the test with NCI-H226 and in the test with NCI-H23 was > 100 µM (inactive) in each case. Besides, the GI50 in the test on OVCAR-5, in the test with RPMI-8226, in the test with SF-539, in the test with SK-MEL-2, in the test on SNB-75 and in the test with UACC-257 was > 100 µM (inactive) throughout.
Regarding `CCOc1ccc(Nc2nc(N)nc(N)c2N=O)cc1`, the GI50 in the test on 786-0 was > 100 µM (inactive); with ACHN, 42.1 µM (inactive); in the test with CAKI-1 it was 10.9 µM (inactive); with COLO 205, > 100 µM (inactive); with DU-145, 38 µM (inactive); in the test with EKVX, 48.4 µM (inactive). Further, the GI50 in the test with Hs-578T is 50.9 µM (inactive); in the test on KM12, > 100 µM (inactive); in the test with LOX IMVI, 32.1 µM (inactive); with Malme-3M, 49 µM (inactive); in the test with NCI-H226, 39.6 µM (inactive); with NCI-H23, 59.7 µM (inactive). Further, the GI50 in the test with OVCAR-5 was > 100 µM (inactive); with RPMI-8226, 47.4 µM (inactive); in the test with SF-539, 80.5 µM (inactive); with SK-MEL-2 it was 65.2 µM (inactive); with SNB-75 it was 28.1 µM (inactive); with UACC-257, 54 µM (inactive).
Consider `Clc1nc(Nc2nc3ccccc3[nH]2)nc(Cl)c1-c1ccccc1`, for which the GI50 is 16.1 µM (inactive) in the test with 786-0; 15.8 µM (inactive) in the test with ACHN; 31.1 µM (inactive) in the test on CAKI-1; 19.1 µM (inactive) in the test with COLO 205; 74.3 µM (inactive) with DU-145; 23.6 µM (inactive) in the test with EKVX. Besides, the GI50 was 21.5 µM (inactive) in the test with Hs-578T; 40.8 µM (inactive) in the test on KM12; 19.1 µM (inactive) with Malme-3M; 20.5 µM (inactive) in the test on NCI-H226; 17.3 µM (inactive) in the test on NCI-H23; 28.3 µM (inactive) in the test with OVCAR-5. For the same molecule, the GI50 is 34.3 µM (inactive) with RPMI-8226; 18.1 µM (inactive) in the test with SF-539; 23.3 µM (inactive) in the test with SK-MEL-2; 9.38 µM (inactive) in the test on SNB-75; 29.7 µM (inactive) in the test with UACC-257.
Regarding `CNN1C(=O)c2c(C)c(C)c(C#N)c(N)c2C1=O`, the GI50 with 786-0, in the test on ACHN, in the test on CAKI-1, with COLO 205, in the test with DU-145 and in the test on EKVX was > 100 µM (inactive) throughout. Besides, the GI50 with Hs-578T, with KM12, in the test with LOX IMVI, with Malme-3M, with NCI-H226 and in the test on OVCAR-5 was > 100 µM (inactive) in each case. Besides, the GI50 with RPMI-8226 is > 100 µM (inactive); with SF-539, > 100 µM (inactive); in the test on SK-MEL-2, > 100 µM (inactive); in the test with SNB-75 it was 83.2 µM (inactive); in the test on UACC-257, > 100 µM (inactive).
Take `Cc1ccc(C(=O)C#Cc2cn(C3CC(O)C(CO)O3)c(=O)[nH]c2=O)cc1` (stereo not given): the GI50 in the test on 786-0 is > 100 µM (inactive); in the test with ACHN it was > 100 µM (inactive); with CAKI-1 it was 90.2 µM (inactive); with COLO 205, 38.6 µM (inactive); in the test on DU-145, > 100 µM (inactive); in the test with EKVX it was > 100 µM (inactive). In addition, the GI50 in the test on Hs-578T was 95.1 µM (inactive); in the test with KM12, > 100 µM (inactive); in the test on LOX IMVI, 95.9 µM (inactive); in the test with Malme-3M, 15.4 µM (inactive); in the test with NCI-H226, > 100 µM (inactive); in the test with NCI-H23, > 100 µM (inactive). The GI50 in the test on RPMI-8226 is 67.8 µM (inactive); in the test on SF-539, > 100 µM (inactive); in the test on SK-MEL-2, > 100 µM (inactive); in the test with SNB-75 it was > 100 µM (inactive); in the test with UACC-257, > 100 µM (inactive).
Regarding `COc1ccc(-c2cc(C3CC3)nc(SCC(=O)O)c2C#N)cc1`, the GI50 in the test on 786-0 was > 100 µM (inactive); in the test on ACHN it was > 100 µM (inactive); in the test on CAKI-1, > 100 µM (inactive); with COLO 205, > 100 µM (inactive); in the test with DU-145, 85.3 µM (inactive); in the test with EKVX, > 100 µM (inactive). Moreover, the GI50 is 84.3 µM (inactive) with Hs-578T; > 100 µM (inactive) with KM12; 36.6 µM (inactive) in the test on LOX IMVI; 82.6 µM (inactive) with NCI-H226; > 100 µM (inactive) with NCI-H23; > 100 µM (inactive) with OVCAR-5. The GI50 in the test with RPMI-8226 was 35.6 µM (inactive); in the test on SF-539, > 100 µM (inactive); in the test on SK-MEL-2 it was > 100 µM (inactive); in the test on SNB-75, > 100 µM (inactive); in the test on UACC-257 it was > 100 µM (inactive).
